The source of these data is patent US20250255923A1, “METHODS FOR EXTRACTING MELATONIN AND COMPOSITIONS THEREOF” (priority 2023, published 2025).

Holding throughout (assay type): in vivo
Assay [1] relates to mice. Description: Sleep induced by sub-threshold dose of pentobarbital sodium in mice. Conditions: pentobarbital sodium 25 mg/kg 60 min after last dose, twice daily for three days, Diazepam 20 mg/kg BW, Tomato Extract 3 mg/kg BW (melatonin content), Synthesized Melatonin 5 mg/kg BW; for Number of Mice that Fell Asleep: 10 mice, within 30 minutes.
Assay [2] concerns mice. Nature of the assay: Sleep induced by over-threshold dose of pentobarbital sodium in mice. The conditions noted are these: pentobarbital sodium 40 mg/kg 60 min after last dose, twice daily for three days, Diazepam 20 mg/kg BW, Tomato Extract 3 mg/kg BW (melatonin content), Synthesized Melatonin 5 mg/kg BW; for Number of Mice that Fell Asleep: 10 mice, within 30 minutes.
The test system of assay [3] is mice. Description: Threshold dose experiment of pentobarbital sodium (sleep rate within 30 minutes post-injection). Conditions: for Sleep Rate (%) / Number of Mice that Fell Asleep: within 30 minutes; for Number of Mice that Fell Asleep: 10 mice. As to the method:
Threshold Dose Experiment of Pentobarbital Sodium: A total of 40 mice were randomly divided into four groups, with 10 mice in each group. Each group received an intraperitoneal injection of pentobarbital sodium at the following doses: 25 mg/kg bodyweight (BW), 30 mg/kg BW, 35 mg/kg BW, and 40 mg/kg BW. The sleep rates of the mice were recorded within 30 minutes post-injection.
Based on the experimental results, it appears that the lower threshold dose of pentobarbital sodium is 25 mg/kg BW (“sub-threshold dose”). Based on the experimental results, it appears that the upper threshold dose of pentobarbital sodium is 40 mg/kg BW (“over-threshold dose”). The lower threshold was used for subsequent studies.

[4] abbreviates: mice, intraperitoneal, sleep within 30 minutes.

`COc1ccc2[nH]cc(CCNC(C)=O)c2c1` [Chemically Synthesized Melatonin, N-acetyl-5-methoxytruptamine]: in the assay on mice [1], the “Sleep Latency” value turned out to be 6.33 min, the “Sleep Rate (%)” value is 100%, the “Total Sleep Duration” value was 21.56 min and the “Number of Mice that Fell Asleep” value was 10. In the assay on mice [2], the “Sleep Latency” value is listed as 4.53 min, the “Sleep Rate (%)” value is on record as 100%, the “Total Sleep Duration” value worked out at 62.56 min and the “Number of Mice that Fell Asleep” value is given as 10.
In the case of `CN1C(=O)CN=C(c2ccccc2)c2cc(Cl)ccc21` [Diazepam], in the assay on mice [1], the “Sleep Latency” value stood at 7.89 min, the “Sleep Rate (%)” value is given as 100%, the “Total Sleep Duration” value amounted to 19.23 min and the “Number of Mice that Fell Asleep” value stood at 10. In addition, in the assay with mice [2], the “Sleep Latency” value came out at 5.13 min, the “Sleep Rate (%)” value worked out at 100%, the “Total Sleep Duration” value turned out to be 58.23 min and the “Number of Mice that Fell Asleep” value came to 10.
On to `CCCC(C)C1(CC)C(=O)NC(=O)NC1=O` (stereo not shown) [Pentobarbital Sodium, pentobarbital sodium], for which the “Sleep Rate (%)” value is listed as 10% in the assay with mice [3] (25 mg/kg BW intraperitoneal); 50% with mice [3] (30 mg/kg BW intraperitoneal); 80% in the assay with mice [3] (35 mg/kg BW intraperitoneal); 100% in the assay with mice [3] (40 mg/kg BW intraperitoneal); 10% with mice [1]; 100% with mice [2]. Also, the “Number of Mice that Fell Asleep” value in the assay with mice [3] (25 mg/kg BW intraperitoneal) came to 1; in the assay with mice [3] (30 mg/kg BW intraperitoneal), 5; in the assay on mice [3] (35 mg/kg BW intraperitoneal) it was 8; in the assay with mice [3] (40 mg/kg BW intraperitoneal), 10; with mice [1] it was 1; in the assay on mice [2] it was 10. In addition, the “lower threshold dose (sub-threshold dose)” value with mice [3] (setting [4]) was found to be 25 mg/kg BW. Also, in the assay on mice [3] (setting [4]), the “upper threshold dose (over-threshold dose)” value is on record as 40 mg/kg BW. The “Sleep Latency” value in the assay with mice [1] was 12.37 min; in the assay with mice [2] it was 12.69 min. Further, the “Total Sleep Duration” value in the assay with mice [1] was determined as 11.50 min; in the assay on mice [2] it was 13.50 min.
